Reference: patent publication US10105357B2, “Indication of antibiotic drugs for preparation of cancer inhibition pharmaceutical composition” (LAUNX BIOMEDICAL CO., LTD., priority 2014, dated 2018)
Like-named read-outs stand apart in the source and are kept apart here.

Tests used:
[1] = tested on: PC3 (p53−) (Prostate Adenocarcinoma); test: Cell viability analysis, prostate cancer PC3; type: cell-based, human; conditions: Homo sapiens, 72 h
[2] = tested on: MKN-45 (Gastric Adenocarcinoma); test: Cell viability analysis, gastric cancer MKN-45; type: cell-based, human; conditions: Homo sapiens, MKN-45, 72 h
TOV-21G = test: Cell viability analysis, ovarian cancer TOV-21G; type: cell-based, human; conditions: Homo sapiens, TOV21G, 72 h, read-out: The results of antibiotic drug inhibiting cancer cell lines (cell viability analysis), TOV-21G
[3] = tested on: Hep3B (hepatocellular carcinoma); test: Cell viability analysis, hepatic cancer Hep3B; type: cell-based, human; conditions: Homo sapiens, Hep3B, 72 h, read-out: The results of antibiotic drug inhibiting cancer cell lines (cell viability analysis), Hep3B
T24 = test: Cell viability analysis, bladder cancer T24; type: cell-based, human; conditions: Homo sapiens, T-24, 72 h, read-out: The results of antibiotic drug inhibiting cancer cell lines (cell viability analysis), T24
[4] = tested on: BCC (basal cell carcinoma); test: Cell viability analysis, skin cancer BCC; type: cell-based, human; conditions: Homo sapiens, 72 h, read-out: The results of antibiotic drug inhibiting cancer cell lines (cell viability analysis), BCC
[5] = tested on: TSGH-8301 (Urinary Bladder Carcinoma); test: Cell viability analysis, bladder cancer TSGH-8301; type: cell-based, human; conditions: Homo sapiens, 72 h
[6] = tested on: A549 (Lung Adenocarcinoma); test: Cell viability analysis, lung cancer A549; type: cell-based, human; conditions: Homo sapiens, A549, 72 h
AsPC-1 = test: Cell viability analysis, pancreatic cancer AsPC-1; type: cell-based, human; conditions: Homo sapiens, ASPC1, 72 h, read-out: The results of antibiotic drug inhibiting cancer cell lines (cell viability analysis), AsPC-1
[7] = tested on: HI650 (Lung Adenocarcinoma); test: Cell viability analysis, lung cancer HI650; type: cell-based, human; conditions: Homo sapiens, NCI-H1650, 72 h
[8] = tested on: HCT116 (p53+) (Colorectal Carcinoma)
cancer cell lines = test: Cell viability analysis (WST-1) on cancer cell lines; type: cell-based, human; conditions: drug 10 μM, 72 hours, WST-1; Table 3
[9] = tested on: C-33A (Cervical carcinoma); test: Cell viability analysis, cervical cancer C-33A; type: cell-based, human; conditions: Homo sapiens, C-33-A, 72 h, read-out: The results of antibiotic drug inhibiting cancer cell lines (cell viability analysis), C-33A
[10] = tested on: 786-O (Renal adenocarcinoma); test: Cell viability analysis, renal cancer 786-O; type: cell-based, human; conditions: Homo sapiens, 786-0, 72 h, read-out: The results of antibiotic drug inhibiting cancer cell lines (cell viability analysis), 786-O
U-2OS = test: Cell viability analysis, osteosarcoma U-2OS; type: cell-based, human; conditions: Homo sapiens, U2OS, 72 h, read-out: The results of antibiotic drug inhibiting cancer cell lines (cell viability analysis), U2OS
[11] = tested on: HepG2 (Hepatocellular Carcinoma); test: Cell viability analysis, hepatic cancer HepG2; type: cell-based, human; conditions: Homo sapiens, HepG2, 72 h
[12] = tested on: HeLa (Cervix Adenocarcinoma); test: Cell viability analysis, cervical cancer HeLa; type: cell-based, human; conditions: Homo sapiens, HeLa, 72 h
[13] = tested on: AGS (Gastric Adenocarcinoma); test: Cell viability analysis, gastric cancer AGS; type: cell-based, human; conditions: Homo sapiens, 72 h
NIH: OVCAR-3 = test: Cell viability analysis, ovarian cancer NIH: OVCAR-3; type: cell-based, human; conditions: Homo sapiens, OVCAR-3, 72 h, read-out: The results of antibiotic drug inhibiting cancer cell lines (cell viability analysis), NIH-OVCAR-3
[14] = tested on: MDA-MB-231 (Mammary Gland, Adenocarcinoma); test: Cell viability analysis, breast cancer MDA-MB-231; type: cell-based, human; conditions: Homo sapiens, MDA-MB-231, 72 h, read-out: The results of antibiotic drug inhibiting cancer cell lines (cell viability analysis), MDA-MB231
[15] = tested on: LoVo (Colorectal Adenocarcinoma); test: Cell viability analysis, colon cancer LoVo; type: cell-based, human; conditions: Homo sapiens, LoVo, 72 h
[16] = tested on: MCF7 (Mammary Gland, Adenocarcinoma); test: Cell viability analysis, breast cancer MCF7; type: cell-based, human; conditions: Homo sapiens, MCF7, 72 h
[17] = tested on: A375 (Amelanotic Melanoma); test: Cell viability analysis, skin cancer A375; type: cell-based, human; conditions: Homo sapiens, A-375, 72 h
[18] = tested on: HL-60 (Acute Promyelocytic Leukemia); test: Cell viability analysis, leukemia HL-60; type: cell-based, human; conditions: Homo sapiens, HL-60, 72 h, read-out: cell viability (survival rate), HL-60, drug 10 μM, 72 hours, WST-1, OD450 nm
BxPC-3 = test: Cell viability analysis, pancreatic cancer BxPC-3; type: cell-based, human; conditions: Homo sapiens, BXPC-3, 72 h, read-out: The results of antibiotic drug inhibiting cancer cell lines (cell viability analysis), BxPC-3
[19] = tested on: SAS (Tongue squamous cell carcinoma); test: Cell viability analysis, tongue cancer SAS; type: cell-based, human; conditions: Homo sapiens, 72 h, read-out: The results of antibiotic drug inhibiting cancer cell lines (cell viability analysis), SAS
[20] = read-out: The results of antibiotic drug inhibiting cancer cell lines (cell viability analysis), PC-3, PC-3, repeated experiment
[21] = read-out: cell viability (survival rate), PC3, drug 10 μM, 72 hours, WST-1, OD450 nm
[22] = read-out: The results of antibiotic drug inhibiting cancer cell lines (cell viability analysis), MKN-45, MKN-45, repeated experiment
[23] = read-out: cell viability (survival rate), MKN-45, drug 10 μM, 72 hours, WST-1, OD450 nm
[24] = read-out: The results of antibiotic drug inhibiting cancer cell lines (cell viability analysis), TSGH-8301, TSGH-8301, repeated experiment
[25] = read-out: cell viability (survival rate), TSGH, drug 10 μM, 72 hours, WST-1, OD450 nm
[26] = read-out: The results of antibiotic drug inhibiting cancer cell lines (cell viability analysis), A549, A549, repeated experiment
[27] = read-out: cell viability (survival rate), A549, drug 10 μM, 72 hours, WST-1, OD450 nm
[28] = read-out: The results of antibiotic drug inhibiting cancer cell lines (cell viability analysis), H1650, H1650, repeated experiment
[29] = read-out: cell viability (survival rate), H1650, drug 10 μM, 72 hours, WST-1, OD450 nm
[30] = read-out: The results of antibiotic drug inhibiting cancer cell lines (cell viability analysis), HepG2, HepG2, repeated experiment
[31] = read-out: cell viability (survival rate), HepG2, drug 10 μM, 72 hours, WST-1, OD450 nm
[32] = read-out: The results of antibiotic drug inhibiting cancer cell lines (cell viability analysis), HeLa, repeated experiment
[33] = read-out: cell viability (survival rate), HeLa, drug 10 μM, 72 hours, WST-1, OD450 nm
[34] = read-out: The results of antibiotic drug inhibiting cancer cell lines (cell viability analysis), AGS, repeated experiment
[35] = read-out: cell viability (survival rate), AGS, drug 10 μM, 72 hours, WST-1, OD450 nm
[36] = read-out: The results of antibiotic drug inhibiting cancer cell lines (cell viability analysis), LoVo, repeated experiment
[37] = read-out: cell viability (survival rate), LoVo, drug 10 μM, 72 hours, WST-1, OD450 nm
[38] = read-out: The results of antibiotic drug inhibiting cancer cell lines (cell viability analysis), MCF-7, MCF-7, repeated experiment
[39] = read-out: cell viability (survival rate), MCF7, drug 10 μM, 72 hours, WST-1, OD450 nm
[40] = read-out: The results of antibiotic drug inhibiting cancer cell lines (cell viability analysis), A375, A375, repeated experiment
[41] = read-out: cell viability (survival rate), A375, drug 10 μM, 72 hours, WST-1, OD450 nm

Row | Compound | viability at 10 µM [1, 20] [%] | viability at 10 µM [1, 21] [%] | viability at 10 µM [2, 22] [%] | viability at 10 µM [2, 23] [%] | viability at 10 µM (TOV-21G) [%] | viability at 10 µM [3] [%] | viability at 10 µM (T24) [%] | viability at 10 µM [4] [%] | viability at 10 µM [5, 24] [%] | viability at 10 µM [5, 25] [%] | viability at 10 µM [6, 26] [%] | viability at 10 µM [6, 27] [%] | viability at 10 µM [7, 28] [%] | viability at 10 µM [7, 29] [%] | viability [8] [%] | inhibition effect on different cancer cell lines (cancer cell lines) | viability at 10 µM [9] [%] | viability at 10 µM [10] [%] | viability at 10 µM (U-2OS) [%] | viability at 10 µM [11, 30] [%] | further results
1 | Cc1noc(NS(=O)(=O)c2ccc(N)cc2)c1C [Sulfisoxazole] | 111 | 36.1 | 105 | 48.4 | 84.5 | 110 | 90.7 | 102 | 105 | 93 | 105 | 39.4 | 75.9 | 73.9 | 97.9 | significant inhibition effect | 116 | 93.3 | 88.6 | 122 | viability at 10 µM (AsPC-1): 80.1%; viability at 10 µM [11, 31]: 108%; viability at 10 µM [12, 32]: 120%; viability at 10 µM [12, 33]: 78.9%; viability at 10 µM [13, 34]: 108%; viability at 10 µM [13, 35]: 88.7%; viability at 10 µM (NIH: OVCAR-3): 108%; viability at 10 µM [14]: 104%; viability at 10 µM [15, 36]: 112%; viability at 10 µM [15, 37]: 68.8%; viability at 10 µM [16, 38]: 106%; viability at 10 µM [16, 39]: 46.1%; viability at 10 µM [17, 40]: 107%; viability at 10 µM [17, 41]: 65.5%; viability at 10 µM [18]: 95.2%; viability at 10 µM (BxPC-3): 67.1%
2 | CC1(C)S[C@@H]2[C@H](NC(=O)Cc3ccccc3)C(=O)N2[C@H]1C(=O)O [Benzylpenicillin sodium] | 106 | 36.1 | 124 | 43.1 | 112 | 113 | 108 | 97.7 | 131 | 39.6 | 97.2 | 36.4 | 121 | 57.1 | 94 | significant inhibition effect | 110 | 93.2 | 71.5 | 108 | viability at 10 µM [11, 31]: 86.4%; viability at 10 µM [12, 32]: 107%; viability at 10 µM [12, 33]: 57.1%; viability at 10 µM [13, 34]: 110%; viability at 10 µM [13, 35]: 54.8%; viability at 10 µM (NIH: OVCAR-3): 110%; viability at 10 µM [14]: 94.7%; viability at 10 µM [15, 36]: 78.3%; viability at 10 µM [15, 37]: 62.8%; viability at 10 µM [16, 38]: 86.9%; viability at 10 µM [16, 39]: 31.3%; viability at 10 µM [17, 40]: 113%; viability at 10 µM [17, 41]: 51.7%; viability at 10 µM [18]: 86.7%; viability at 10 µM [19]: 67%; viability at 10 µM (BxPC-3): 95.3%
